The values below come from ChEMBL document CHEMBL1144017, “Novel AMPA and kainate receptor antagonists containing the pyrazolo[1,5-c]quinazoline ring system: Synthesis and structure-activity relationships” (Bioorg Med Chem, 2008).

A short description of assay [1]: Displacement of [3H]kainate from KA receptor in rat cortical membrane. It is filed as cell membranes.
The next assay deals with Glutamate NMDA receptor. Kind of assay: Displacement of [3H]glycine from NMDA receptor in rat cortical membrane. It is filed as cell membranes.
The nature of assay [2]: Displacement of [3H]AMPA from AMPA receptor in rat cortical membrane. It is filed as cell membranes.
The species named for assay [3] is Rattus norvegicus. The assay is described as follows: Ratio of Ki for rat NMDA receptor to Ki for rat AMPA receptor.
Assay [4] concerns the target AMPA receptor (Mus musculus). The assay is described as follows: Antagonist activity at AMPA receptor assessed as inhibition of AMPA-induced depolarization in mouse cortical wedge preparation by electrophysiology assay.
Assay [5] deals with Glutamate NMDA receptor (Mus musculus). The assay is described as follows: Antagonist activity at NMDA receptor assessed as inhibition of NMDA-induced depolarization in mouse cortical wedge preparation by electrophysiology assay.
Assay [6] addresses Glutamate NMDA receptor (Rattus norvegicus) (UniProt P35439+Q00959+Q00960+Q00961+Q62645+Q8VHN2+Q9R1M7). The assay is described as follows: Displacement of [3H]glycine from NMDA receptor in rat cortical membrane at 100 uM. It counts as cell membranes.
For assay [7], the species on record is Rattus norvegicus. The assay is described as follows: Displacement of [3H]kainate from KA receptor in rat cortical membrane at 100 uM. It is filed as cell membranes.
The species entered for assay [8] is Rattus norvegicus. The assay is described as follows: Displacement of [3H]AMPA from AMPA receptor in rat cortical membrane at 100 uM. It counts as cell membranes.

In [1], `CCNC(=O)Nc1cc2c(cc1Cl)[nH]c(=O)n1nc(C(=O)O)c(C(=O)O)c21` gave a concentration for half-maximal inhibition (IC50) of 9.8 µM. Further, the Ki on Glutamate NMDA receptor was 41 µM; in assay [2], 0.56 µM. Moreover, the Ratio Ki in the assay listed under Rattus norvegicus [3] turned out to be 73.3.
In assay [2], `O=C(O)c1cc2c3cc(-n4cnnc4)c(Cl)cc3[nH]c(=O)n2n1` had a Ki of 0.14 µM.
Regarding `CCOC(=O)c1nn2c(=O)[nH]c3cc(Cl)c(-n4cnnc4)cc3c2c1C(=O)OCC`, the results for the IC50 in assay [1], in assay [4] and in [5] were 82 µM, 5.8 µM and greater than 20 µM, respectively. Also, the inhibition constant Ki in assay [2] amounted to 1.2 µM. Moreover, the Ratio Ki in the assay filed under Rattus norvegicus [3] was greater than 80. Moreover, the Activity in [6] was found to be 18%.
Consider `O=C(Nc1ccc(C(=O)O)cc1)Nc1cc2c(cc1Cl)[nH]c(=O)n1nc(C(=O)O)c(C(=O)O)c21`, for which, in assay [1], the half-inhibitory concentration (IC50) amounted to 13 µM. Besides, the results for the inhibition constant (Ki) (at Glutamate NMDA receptor; in assay [2]) were 49 µM and 1.1 µM, respectively. Further, the Ratio Ki in the assay listed under Rattus norvegicus [3] came to 44.
Taken in the same sequence, the figures for `O=C(Nc1ccccc1)Nc1cc2c(cc1Cl)[nH]c(=O)n1nc(C(=O)O)c(C(=O)O)c21` were 11 µM, 11.7 µM, 0.14 µM and 83.5.
As for `CCOC(=O)c1nn2c(=O)[nH]c3cc(Cl)c([N+](=O)[O-])cc3c2c1[N+](=O)[O-]`, the Activity in the assay listed under Rattus norvegicus [7] came to 16%; in the assay listed under Rattus norvegicus [8], 45%. Moreover, the inhibition constant (Ki) on Glutamate NMDA receptor is 36.2 µM. In addition, the Ratio Ki in the assay listed under Rattus norvegicus [3] is 0.4.
As to `CCOC(=O)c1nn2c(=O)[nH]c3cc(Cl)c([N+](=O)[O-])cc3c2c1C(=O)OCC`, the Activity in the assay listed under Rattus norvegicus [7] was found to be 0%; in the assay filed under Rattus norvegicus [8], 40%; in assay [6], 30%.
With `O=C(NCCc1ccccc1)Nc1cc2c(cc1Cl)[nH]c(=O)n1nc(C(=O)O)c(C(=O)O)c21`, the IC50 in assay [1] stood at 17 µM. For the same compound, the inhibition constant (Ki) on Glutamate NMDA receptor came out at 31 µM; in [2], 0.48 µM.
On to `O=C(O)c1nn2c(=O)[nH]c3cc(Cl)c(-n4cccc4)cc3c2c1C(=O)O`, for which the half-maximal inhibitory concentration (IC50) in [1] was 4.5 µM. In addition, the Ki at Glutamate NMDA receptor came out at 20 µM; in assay [2], 0.13 µM. Moreover, the Ratio Ki in the assay listed under Rattus norvegicus [3] worked out at 154.
Turning to `CCOC(=O)c1nn2c(=O)[nH]c3cc(Cl)c(NC(=O)Nc4ccccc4)cc3c2c1C(=O)OCC`, the values for the Activity (in the assay listed under Rattus norvegicus [7]; in the assay listed under Rattus norvegicus [8]; in assay [6]) were 0%, 20% and 11%, respectively.
Take `CCOC(=O)c1nn2c(=O)[nH]c3cc(Cl)c(NC(=O)c4ccccc4C(=O)O)cc3c2c1C(=O)OCC`: the IC50 in assay [1] worked out at 0.11 µM. Also, the inhibition constant Ki stood at 36 µM at Glutamate NMDA receptor and 2.8 µM in [2]. Further, the Ratio Ki in the assay filed under Rattus norvegicus [3] amounted to 12.8.
For the compound `CCOC(=O)c1nn2c(=O)[nH]c3cc(Cl)c(NC(=O)NC(Cc4ccccc4)C(=O)OC)cc3c2c1C(=O)OCC` (racemic), the Activity in the assay filed under Rattus norvegicus [7] came out at 16%; in the assay listed under Rattus norvegicus [8] it was 46%; in [6], 16%.
Turning to `CCNC(=O)Nc1cc2c(cc1Cl)[nH]c(=O)n1nc(C(=O)OCC)c(C(=O)OCC)c21`, the results for the Activity (in the assay listed under Rattus norvegicus [7]; in assay [6]) were 13% and 44%, respectively. In addition, the Ki in [2] worked out at 27 µM. Further, the Ratio Ki in the assay listed under Rattus norvegicus [3] was greater than 3.7.
Consider `CCOC(=O)c1c(C(=O)O)nn2c(=O)[nH]c3cc(Cl)c([N+](=O)[O-])cc3c12`, for which, in [1], the half-inhibitory concentration (IC50) came to 60 µM. In addition, the results for the Ki (on Glutamate NMDA receptor; in [2]) were 4.7 µM and 0.94 µM, respectively. Further, the Ratio Ki in the assay listed under Rattus norvegicus [3] is 5.
Taken in the same sequence, the figures for `O=C(O)CCNC(=O)Nc1cc2c(cc1Cl)[nH]c(=O)n1nc(C(=O)O)c(C(=O)O)c21` were 4.6 µM, 68 µM, 0.16 µM and 425.
The compound `CCOC(=O)CCCNC(=O)Nc1cc2c(cc1Cl)[nH]c(=O)n1nc(C(=O)OCC)c(C(=O)OCC)c21` displayed an Activity in the assay filed under Rattus norvegicus [7] of 24%. Further, the Ki on Glutamate NMDA receptor turned out to be 99 µM; in assay [2], 3.5 µM. Besides, the Ratio Ki in the assay listed under Rattus norvegicus [3] amounted to 28.
Regarding `O=C(NCc1ccccc1)Nc1cc2c(cc1Cl)[nH]c(=O)n1nc(C(=O)O)c(C(=O)O)c21`, the half-maximal inhibitory concentration (IC50) in assay [1] was 11 µM. Also, the inhibition constant (Ki) at Glutamate NMDA receptor came out at 16.3 µM; in assay [2], 0.37 µM. Also, the Ratio Ki in the assay filed under Rattus norvegicus [3] is 44.
For the compound `CCOC(=O)c1cccc(NC(=O)Nc2cc3c(cc2Cl)[nH]c(=O)n2nc(C(=O)OCC)c(C(=O)OCC)c32)c1`, the Activity in the assay filed under Rattus norvegicus [7] came to 0%; in the assay listed under Rattus norvegicus [8], 18%; in assay [6], 0%.
As to `CCOC(=O)CCNC(=O)Nc1cc2c(cc1Cl)[nH]c(=O)n1nc(C(=O)OCC)c(C(=O)OCC)c21`, the Activity (in the assay filed under Rattus norvegicus [7]; in [6]) was 32% each time. The compound also had a Ki in [2] of 3.8 µM. Besides, the Ratio Ki in the assay filed under Rattus norvegicus [3] is greater than 26.
In assay [1], `O=C(Nc1cccc(C(=O)O)c1)Nc1cc2c(cc1Cl)[nH]c(=O)n1nc(C(=O)O)c(C(=O)O)c21` yielded a half-inhibitory concentration (IC50) of 3 µM. Moreover, the inhibition constant Ki came out at 35 µM on Glutamate NMDA receptor and 0.42 µM in assay [2]. The Ratio Ki in the assay filed under Rattus norvegicus [3] is 83.
Consider `CCOC(=O)c1nn2c(=O)[nH]c3cc(Cl)c(NC(=O)NCCc4ccccc4)cc3c2c1C(=O)OCC`, for which the figures for the Activity in the assay filed under Rattus norvegicus [7] and in the assay filed under Rattus norvegicus [8] were 9% and 44%, respectively. The same compound had an inhibition constant Ki at Glutamate NMDA receptor of 49 µM. Also, the Ratio Ki in the assay filed under Rattus norvegicus [3] came to 0.49.
Regarding `CCOC(=O)c1nn2c(=O)[nH]c3cc(Cl)c(-n4ccc(C=O)c4)cc3c2c1C(=O)OCC`, the Activity in the assay filed under Rattus norvegicus [7] turned out to be 17%; in [6] it was 20%. In addition, the Ki in assay [2] was found to be 15.7 µM. Moreover, the Ratio Ki in the assay filed under Rattus norvegicus [3] was greater than 6.
Taken in the same sequence, the figures for `CCOC(=O)CNC(=O)Nc1cc2c(cc1Cl)[nH]c(=O)n1nc(C(=O)OCC)c(C(=O)OCC)c21` were 19%, 43%, 8.9 µM and greater than 11.
For the compound `CCOC(=O)c1nn2c(=O)[nH]c3cc(Cl)c([N+](=O)[O-])cc3c2c1Cl`, the Activity in the assay listed under Rattus norvegicus [7] is 25%; in assay [6], 45%. Moreover, in assay [2], the Ki worked out at 63 µM. Moreover, in the assay filed under Rattus norvegicus [3], the Ratio Ki was greater than 1.5.
The compound `O=C(O)c1nn2c(=O)[nH]c3cc(Cl)c([N+](=O)[O-])cc3c2c1C(=O)O` had a concentration for half-maximal inhibition (IC50) in assay [1] of 11.7 µM. For the same compound, the Ki worked out at 1.25 µM on Glutamate NMDA receptor and 0.59 µM in [2]. In the assay filed under Rattus norvegicus [3], the Ratio Ki is 2.
On to `CCOC(=O)c1ccc(NC(=O)Nc2cc3c(cc2Cl)[nH]c(=O)n2nc(C(=O)OCC)c(C(=O)OCC)c32)cc1`, for which the Activity in the assay listed under Rattus norvegicus [7] is 15%; in the assay listed under Rattus norvegicus [8], 5%; in [6], 5%.
Take `CCOC(=O)c1nn2c(=O)[nH]c3cc(Cl)c(-n4cccc4)cc3c2c1C(=O)OCC`: the figures for the Activity (in the assay filed under Rattus norvegicus [7]; in [6]) were 12% and 13%, respectively. In addition, the Ki in assay [2] was 48 µM. The Ratio Ki in the assay filed under Rattus norvegicus [3] was greater than 2.
In the case of `O=C(O)c1nn2c(=O)[nH]c3cc(Cl)c([N+](=O)[O-])cc3c2c1Cl`, in [1], the half-inhibitory concentration (IC50) is 94 µM. Moreover, the inhibitory constant (Ki) is 2.5 µM on Glutamate NMDA receptor and 1.3 µM in assay [2]. For the same compound, in the assay filed under Rattus norvegicus [3], the Ratio Ki is 1.9.
Taken in the same sequence, the figures for `O=C(O)c1ccccc1C(=O)Nc1cc2c(cc1Cl)[nH]c(=O)n1nc(C(=O)O)c(C(=O)O)c21` were 0.52 µM, 27 µM, 1.3 µM and 20.7.
Turning to `CCOC(=O)c1nn2c(=O)[nH]c3cc(Cl)c(NC(=O)NCc4ccccc4)cc3c2c1C(=O)OCC`, the Activity in the assay listed under Rattus norvegicus [7] is 0%; in the assay listed under Rattus norvegicus [8], 44%; in assay [6] it was 19%.
In assay [1], `O=C(Nc1cc2c(cc1Cl)[nH]c(=O)n1nc(C(=O)O)c(C(=O)O)c21)NC(Cc1ccccc1)C(=O)O` (racemic) showed a concentration for half-maximal inhibition (IC50) of 40 µM. The Ki on Glutamate NMDA receptor was found to be 61 µM; in assay [2] it was 0.47 µM. The Ratio Ki in the assay listed under Rattus norvegicus [3] turned out to be 129.
Taken in the same sequence, the figures for `O=C(O)CNC(=O)Nc1cc2c(cc1Cl)[nH]c(=O)n1nc(C(=O)O)c(C(=O)O)c21` were 4.4 µM, 54 µM, 0.48 µM and 112.
As to `O=C(O)c1nn2c(=O)[nH]c3cc(Cl)c(-n4cnnc4)cc3c2c1C(=O)O`, the IC50 in assay [1] was 2.4 µM; in assay [4] it was 2.5 µM; in assay [5], greater than 10 µM. The same compound registered an inhibition constant Ki in assay [2] of 0.1 µM. The Ratio Ki in the assay filed under Rattus norvegicus [3] was greater than 1000. The Activity in assay [6] turned out to be 43%.
Take `O=C(O)c1nn2c(=O)[nH]c3cc(Cl)c([N+](=O)[O-])cc3c2c1[N+](=O)[O-]`: in the assay listed under Rattus norvegicus [7], the Activity stood at 29%. Moreover, the Ki on Glutamate NMDA receptor turned out to be 20.5 µM; in assay [2], 11.9 µM. Besides, the Ratio Ki in the assay filed under Rattus norvegicus [3] amounted to 1.7.
